ChEMBL document CHEMBL1149613, “Characterized mechanism of alpha-mangostin-induced cell death: caspase-independent apoptosis with release of endonuclease-G from mitochondria and increased miR-143 expression in human colorectal cancer DLD-1 cells” (Bioorg Med Chem, 2007)
Active and inactive are the calls of the source. The rule behind the calls is not given here.

What was measured:
Assay type in all cases: functional, cell-based
DLD-1 [1] = assay: Decrease in Erk5 expression levels in human DLD1 cells by Western blot
DLD-1 [2] = assay: Apoptotic activity in human DLD1 cells at 15 uM after 24 hrs by Trypan blue exclusion test
DLD-1 [3] = assay: Induction of apoptosis in human DLD1 cells assessed as activation of bcl2 at 20 uM by Western blot
DLD-1 [4] = assay: Induction of apoptosis in human DLD1 cells assessed as release of apoptosis-inducing factor at 20 uM after 6 to 24 hrs by Western blot
DLD-1 [5] = assay: Cytotoxicity against human DLD1 cells after 24 hrs by Trypan blue exclusion test; conditions: DLD-1, 24 h
DLD-1 [6] = assay: Increase in p-p38 levels in human DLD1 cells after 1 to 3 hrs by Western blot
DLD-1 [7] = assay: Reduction in cMyc level in human DLD1 cells by Western blot
DLD-1 [8] = assay: Induction of apoptosis in human DLD1 cells assessed as activation of bax protein at 20 uM by Western blot
DLD-1 [9] = assay: Effect on ERK5 mRNA expression levels in human DLD1 cells by semi-qRT PCR
DLD-1 [10] = assay: Cytotoxicity against human DLD1 cells at 2 uM after 24 hrs by Trypan blue exclusion test
DLD-1 [11] = assay: Induction of apoptosis in human DLD1 cells assessed as release of endonuclease-G at 20 uM after 6 to 24 hrs by Western blot
DLD-1 [12] = assay: Induction of apoptosis in human DLD1 cells assessed as activation of pan-caspase at 20 uM by Western blot
DLD-1 [13] = assay: Induction of apoptosis in human DLD1 cells assessed as activation of caspase-3 at 20 uM by Western blot
DLD-1 [14] = assay: Cytotoxicity against human DLD1 cells assessed as decrease in cell number at 20 uM after 24 hrs by Trypan blue exclusion test
DLD-1 [15] = assay: Induction of apoptosis in human DLD1 cells assessed as release of endonuclease-G after 6 hrs by Western blot
DLD-1 [16] = assay: Growth inhibition of human DLD1 cells

Structure (SMILES) | Activity (DLD-1 [1]) | Activity (DLD-1 [2]) | Activity (DLD-1 [3]) | Activity (DLD-1 [4]) | IC50 (DLD-1 [5]) [µM] | Activity (DLD-1 [6]) | Activity (DLD-1 [7]) | Activity (DLD-1 [8]) | Activity (DLD-1 [9]) | Activity (DLD-1 [10]) | Activity (DLD-1 [11]) | Activity (DLD-1 [12]) | Activity (DLD-1 [13]) | Activity (DLD-1 [14]) | Activity (DLD-1 [15]) | IC50 (DLD-1 [16]) [µM]
COc1c(O)cc2oc3cc(O)c(CC=C(C)C)c(O)c3c(=O)c2c1CC=C(C)C [MANGOSTIN] | Active | Active | inactive | inactive | 7.5 | Active | Active | inactive | inactive | Active | Active | inactive | inactive | Active | Dose-dependent effect | 
O=c1[nH]cc(F)c(=O)[nH]1 [FLUOROURACIL] |  |  |  |  |  |  |  |  |  |  |  |  |  |  |  | 4.5
